The text below walks through data of ChEMBL document CHEMBL1201862, “PubChem BioAssay data set” (2004).

Molecules are shown by their SMILES.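 Growth conditions: 96-well plates. Treatment: test compound, 48 hours, 5 concentrations. Analysis: linear interpolation between bracketing concentrations; unreached endpoints set to highest concentration. Here, GI50 denotes the concentration required for 50% inhibition of growth.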 The source made the active and inactive calls. No stated cut-off is given here; in the data, active = GI50 up to about 1.1 µM and inactive = higher.

Some test systems named below: SF-295; RPMI-8226; M19-MEL; M14; OVCAR-4; ACHN; SF-539; NCI-H522; A498; SN12C; OVCAR-8; K562; EKVX; SK-OV-3; Hs-578T; PC-3; T47D; NCI/ADR-RES; MDA-MB-435; MCF7.
Holding throughout (experiment): NCI tumour cell line growth inhibition, 48 h

Take `Cn1nc(-c2cccc(-c3nn(C)/c(=N\CCO)s3)n2)s/c1=N/CCO`: the GI50 with SF-295 was > 100 µM (inactive); in the assay on RPMI-8226, 63 µM (inactive); in the assay on M19-MEL, > 100 µM (inactive); in the assay with M14, > 100 µM (inactive); with OVCAR-4, > 100 µM (inactive); in the assay on ACHN, > 100 µM (inactive). In addition, the GI50 was > 100 µM (inactive) in the assay with SF-539; 36.5 µM (inactive) with NCI-H522; > 100 µM (inactive) in the assay with A498; > 100 µM (inactive) with SN12C; > 100 µM (inactive) with OVCAR-8; > 100 µM (inactive) with K562. The GI50 in the assay on EKVX is > 100 µM (inactive).

As for `C[n+]1ccc(-c2cc[n+](C)cc2)cc1` [PARAQUAT DICHLORIDE], the GI50 in the assay with SK-OV-3 was > 24.7 µM (inactive); with SF-295 it was > 19.6 µM (inactive); in the assay with RPMI-8226, > 70 µM (inactive); in the assay on M19-MEL it was 9.42 µM (inactive); with M14, 13.9 µM (inactive); in the assay with OVCAR-4, 1.55 µM (inactive). For the same molecule, the GI50 is > 26.4 µM (inactive) in the assay on ACHN; 20.7 µM (inactive) in the assay on SF-539; > 32.6 µM (inactive) with A498; 10.2 µM (inactive) in the assay on SN12C; > 30 µM (inactive) in the assay on OVCAR-8; > 100 µM (inactive) in the assay on K562. Moreover, the GI50 with EKVX was > 30.6 µM (inactive).

On to `O=C(CC(O)(c1ccccc1)c1ccc(Cl)cc1)NC(=O)c1ccccc1O` (stereo not given), for which the GI50 was 17.1 µM (inactive) with SK-OV-3; 4.4 µM (inactive) in the assay with SF-295; 18.6 µM (inactive) in the assay with M19-MEL; 12.4 µM (inactive) with M14; 5.74 µM (inactive) in the assay with OVCAR-4; 4.49 µM (inactive) with ACHN. Also, the GI50 in the assay on SF-539 was 11.6 µM (inactive); with NCI-H522, 3.16 µM (inactive); in the assay with A498 it was 1.95 µM (inactive); in the assay with SN12C, 3.76 µM (inactive); in the assay on OVCAR-8 it was 4.54 µM (inactive); with K562 it was 4.6 µM (inactive). For the same molecule, the GI50 with EKVX was 20.7 µM (inactive).

Consider `O=C(Cc1nc2sc3c(c2c(=O)[nH]1)CCCC3)Nc1ccccc1`, for which the GI50 is 43.5 µM (inactive) in the assay with SK-OV-3; > 100 µM (inactive) in the assay on SF-295; > 100 µM (inactive) in the assay on RPMI-8226; > 100 µM (inactive) with M19-MEL; > 100 µM (inactive) in the assay with M14; > 100 µM (inactive) with OVCAR-4. Moreover, the GI50 with ACHN is > 100 µM (inactive); with SF-539, 73.6 µM (inactive); in the assay with NCI-H522 it was > 100 µM (inactive); in the assay with A498, > 100 µM (inactive); in the assay on SN12C it was > 100 µM (inactive); in the assay with OVCAR-8 it was > 100 µM (inactive). For the same molecule, the GI50 in the assay with K562 and in the assay with EKVX was > 100 µM (inactive) in each case.

Regarding `CCCCCCCCOCC(O)CO` (stereo not given), the GI50 in the assay on SK-OV-3 is > 100 µM (inactive); with SF-295 it was > 100 µM (inactive); in the assay on RPMI-8226, 44.6 µM (inactive); in the assay with M19-MEL, > 100 µM (inactive); in the assay with M14, > 100 µM (inactive); with OVCAR-4 it was > 100 µM (inactive). Moreover, the GI50 with ACHN is > 100 µM (inactive); in the assay with SF-539 it was > 100 µM (inactive); in the assay with NCI-H522, 28 µM (inactive); in the assay on A498, > 100 µM (inactive); in the assay with SN12C, > 100 µM (inactive); in the assay on OVCAR-8 it was > 100 µM (inactive). The GI50 in the assay on K562 and with EKVX was > 100 µM (inactive) throughout.

As for `COc1cc2cnc3c4cc(OC)c(OC(C)C)cc4ccc3c2cc1OC`, the GI50 in the assay on SK-OV-3, with SF-295, in the assay on RPMI-8226, in the assay with M19-MEL, in the assay on M14 and in the assay with OVCAR-4 was > 100 µM (inactive) each time. Besides, the GI50 in the assay on ACHN, in the assay on SF-539, in the assay on NCI-H522, in the assay on SN12C, in the assay on OVCAR-8 and in the assay with K562 was > 100 µM (inactive) in each case. Also, the GI50 in the assay with EKVX was > 100 µM (inactive).

Consider `CN(C)CCC1(C2=CCCC2)CC/C(=C\c2ccc(Cl)cc2)C1=O` (stereo not given), for which the GI50 in the assay on SK-OV-3 was 6.93 µM (inactive); in the assay on SF-295, 7.82 µM (inactive); in the assay with RPMI-8226, 5.73 µM (inactive); in the assay on M19-MEL, 5.22 µM (inactive); in the assay with M14, 2.01 µM (inactive); with OVCAR-4 it was 9.46 µM (inactive). Besides, the GI50 with ACHN is 11.5 µM (inactive); in the assay with SF-539 it was 12.7 µM (inactive); with NCI-H522, 6.68 µM (inactive); in the assay on A498, 6.25 µM (inactive); in the assay with SN12C, 11.9 µM (inactive); in the assay with OVCAR-8, 12.3 µM (inactive). The GI50 in the assay with K562 was 2.58 µM (inactive); in the assay with EKVX, 7.16 µM (inactive).

As for `NCCCCC(=O)c1cccnc1`, the GI50 in the assay on SK-OV-3, in the assay with SF-295, with RPMI-8226, in the assay on M19-MEL, in the assay with M14 and in the assay with SF-539 was > 100 µM (inactive) throughout. In addition, the GI50 in the assay on NCI-H522, with A498, with OVCAR-8, with K562 and in the assay with EKVX was > 100 µM (inactive) each time.

As to `C/C(=N/NS(=O)(=O)c1ccccc1)c1cccc[n+]1[O-]`, the GI50 with SK-OV-3, with SF-295, with RPMI-8226, with M19-MEL, in the assay with M14 and in the assay with OVCAR-4 was > 100 µM (inactive) each time. Moreover, the GI50 in the assay on ACHN, in the assay on SF-539, in the assay on NCI-H522, in the assay on A498, with SN12C and in the assay with OVCAR-8 was > 100 µM (inactive) in each case. The GI50 in the assay on EKVX is > 100 µM (inactive).

Regarding `CCCCCCCCCCC(O)C1CCC(C(O)CCC(O)C2CCC(CCCCCCC[C@H](O)CC3=C[C@@H](C)OC3=O)O2)O1` (stereo not given in full), the GI50 in the assay with Hs-578T is > 10 µM (inactive); in the assay with SK-OV-3 it was 30.3 µM (inactive); with SF-295, 0.01 µM (active); in the assay with PC-3, > 10 µM (inactive); in the assay on T47D it was > 10 µM (inactive); in the assay on RPMI-8226, 0.855 µM (active). Also, the GI50 with NCI/ADR-RES is 0.957 µM (active); with M19-MEL, > 76.4 µM (inactive); in the assay with M14, > 100 µM (inactive); in the assay with MDA-MB-435, 6.28 µM (inactive); in the assay on ACHN, 1.2 µM (inactive); in the assay with SF-539 it was 26.8 µM (inactive). Also, the GI50 is 1.34 µM (inactive) with NCI-H522; 22.2 µM (inactive) in the assay on A498; > 48.9 µM (inactive) with SN12C; 2 µM (inactive) with MCF7; 10.2 µM (inactive) with OVCAR-8; 34.8 µM (inactive) in the assay on EKVX.

Consider `CCOC(=O)CC[C@@H](NC(=O)c1ccc(N[C@@H]2c3cc4c(cc3C(c3cc(OC)c(O)c(OC)c3)C3C(=O)OC[C@@H]32)OCO4)cc1)C(=O)OCC` (stereo not given in full), for which the GI50 was 0.0144 µM (active) with SK-OV-3; 0.0121 µM (active) with SF-295; 0.0411 µM (active) in the assay on RPMI-8226; 0.0608 µM (active) with M19-MEL; 5.24 µM (inactive) in the assay on M14; 0.0115 µM (active) with ACHN. Also, the GI50 with SF-539 is 0.0157 µM (active); with NCI-H522, 0.0975 µM (active); with A498, 0.0129 µM (active); with SN12C, 0.0256 µM (active); in the assay with OVCAR-8, 0.0251 µM (active); in the assay on K562 it was 0.0469 µM (active). Further, the GI50 in the assay on EKVX is 0.0251 µM (active).

Take `C=CCCCn1ccc2ccccc21`: the GI50 in the assay with SK-OV-3, with SF-295, in the assay with RPMI-8226, with M19-MEL, in the assay with M14 and in the assay on ACHN was > 100 µM (inactive) each time. Further, the GI50 in the assay on SF-539, in the assay with NCI-H522, with A498, in the assay on SN12C, with OVCAR-8 and with K562 was > 100 µM (inactive) each time. Moreover, the GI50 in the assay with EKVX is > 100 µM (inactive).

In the case of `CCCCCCCCCCCCCCCCCC(=O)OCC(C[As](=O)(O)O)OC(=O)CCCCCCCCCCCCCCCCC` (stereo not given), the GI50 in the assay with SK-OV-3 is 18.2 µM (inactive); with SF-295, 32.7 µM (inactive); in the assay with RPMI-8226, 28.3 µM (inactive); in the assay on M19-MEL, > 100 µM (inactive); in the assay on M14, > 100 µM (inactive); with OVCAR-4, > 100 µM (inactive). Further, the GI50 in the assay on ACHN was 34.3 µM (inactive); in the assay on SF-539 it was 32.6 µM (inactive); with NCI-H522 it was 33.1 µM (inactive); in the assay with A498 it was > 100 µM (inactive); in the assay on SN12C, 50.1 µM (inactive); with OVCAR-8, > 100 µM (inactive). For the same molecule, the GI50 is 44.7 µM (inactive) with K562 and > 100 µM (inactive) in the assay on EKVX.

Take `Cc1ccc(NC(=O)/C(=N/NC(=O)CC#N)C2C(=O)N(c3ccccc3)N=C2N)cc1C` (stereo not given): the GI50 in the assay on SK-OV-3, in the assay on SF-295, with RPMI-8226, with M19-MEL, in the assay on M14 and in the assay with OVCAR-4 was > 100 µM (inactive) in each case. For the same molecule, the GI50 in the assay with ACHN, with SF-539, in the assay with NCI-H522, in the assay with A498, in the assay on SN12C and in the assay on OVCAR-8 was > 100 µM (inactive) each time. For the same molecule, the GI50 in the assay with K562 and with EKVX was > 100 µM (inactive) throughout.
